According to patent publication US20070099838A1, “Plant-derived peptides harboring water-cleaning and antimicrobial activities” (OPTIMA ENVIRONNEMENT S.A., priority 2003, published 2007):

Legend:
[1] = Coagulating activity (coagulation agents for water treatment), graded relative to FLO; set-up: key: +++: higher activity than FLO; ++: equivalent activity of FLO; +: lower activity than FLO; −: no activity observed; details: coagulating activity compared with FLO
Excerpt: (§1) More information regarding the detailed description of the invention (e.g. material & methods, experimental results) can be found in international patent application PCT/CH03/00568 which is incorporated by reference.

[2] = Antimicrobial (antibiotic) activity, graded relative to FLO; type: cell-based; set-up: key: +++: higher activity than FLO; ++: equivalent activity of FLO; +: lower activity than FLO; −: no activity observed; details: antimicrobial activity compared with FLO
Excerpt: as §1

Sequence | Coag. [1] | antlbt. [2]
AVQLTHQQQGQV [P2c, derivative of FLO] | − | −
GQVGPQQVRQMYRVASNIPST [P3, derivative of FLO] | − | −
PQRCPSLRQAV [P2a, derivative of FLO] | − | −
PQRCPSLRQAVQLTHQ [P2ab, derivative of FLO] | ++ | 
PQRCPSLRQAVQLTHQQQGQV [P2, derivative of FLO] | ++ | +
PQRCPSLRQAVQLTHQQQRQV [P2GR40, derivative of FLO] | +++ | ++
QGPGRQPDFQRCGQQLRNISPP [P1, derivative of FLO] | − | 
QGPGRQPDFQRCGQQLRNISPPQRCPSLRQAVQLTHQQQGQVGPQQRQMYRVASNIPST [Flo, protein called FLO, disclosed in WO 03/008441 A2; coagulation and antimicrobial agent, reference compound] | ++ | ++
RCGQQLRNISPPQRCPSLRQAVQLTHQQQGQ [P2.1, derivative of FLO] | − | 
SLRQAVQLTHQ [P2b, derivative of FLO] | − | −
